These results are taken from patent US6060462A, “Electrophilic peptide analogs as inhibitors of trypsin-like enzymes” (DuPont Pharmaceuticals Company, priority 1997, dated 2000).

Assay [1] addresses T1, human thrombin (Homo sapiens, UniProt P00734). Particulars: literature value; cited from earlier work.
Assay [2] has as its target T2, human factor Xa (Homo sapiens, UniProt P00742).
T2 construct: 0.2-0.5 nM human thrombin or human factor Xa; purchased Enzyme Research Laboratories, South Bend, Ind
The assay is described as follows: Inhibition of Factor Xa hydrolysis of chromogenic substrate S2222 (Ki). In kind it is biochemical. The conditions noted are these: purified human factor Xa, 0.10 M sodium phosphate buffer. In outline:
(§1)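 Purified human proteases hydrolysed chromogenic substrates (thrombin S2238, Xa S2222, VIIa S2288), followed at 405 nm. Thrombin/Xa buffer: 0.10 M sodium phosphate pH 7.5, 0.20 M NaCl, 0.5% PEG 8000; VIIa: 0.05 M Tris pH 7.6, 0.10 M NaCl, 4 mM CaCl2, 0.1% BSA. Ki from velocities at 25–30 min.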

Assay [3] concerns the target T3, human factor VIIa (Homo sapiens, UniProt P08709).
T3 construct: 50 nM human factor VIIa (BiosPacific, Emeryville, Calif.); purchased BiosPacific, Emeryville, Calif
T3 sequence (P08709 213-466 limits assumed): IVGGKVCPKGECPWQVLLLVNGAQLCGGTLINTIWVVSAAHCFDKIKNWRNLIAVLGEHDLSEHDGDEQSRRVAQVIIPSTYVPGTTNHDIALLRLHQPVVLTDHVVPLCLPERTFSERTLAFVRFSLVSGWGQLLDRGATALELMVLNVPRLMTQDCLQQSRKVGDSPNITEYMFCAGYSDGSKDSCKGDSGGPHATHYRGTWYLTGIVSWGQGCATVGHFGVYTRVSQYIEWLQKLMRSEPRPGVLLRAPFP
T3 sequence (P08709 61-212 partner limits assumed): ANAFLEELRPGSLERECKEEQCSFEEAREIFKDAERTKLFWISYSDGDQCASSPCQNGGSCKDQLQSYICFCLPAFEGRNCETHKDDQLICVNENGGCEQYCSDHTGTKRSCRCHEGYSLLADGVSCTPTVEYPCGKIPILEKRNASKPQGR
Put plainly: Inhibition of Factor VIIa hydrolysis of chromogenic substrate S2288 (Ki). In kind it is biochemical. The conditions noted are these: purified human factor VIIa, 0.05 M tris buffer, pH 7.6, read-out: Ki values for inhibition of Serine Proteases: Factor VIIa. The method, boiled down: as §1

In assay [4] the test system is Thrombin time. Put plainly: Thrombin time (IC50), Table 80.
Assay [5] concerns the target T1, human thrombin. The assay is described as follows: Inhibition of thrombin hydrolysis of chromogenic substrate S2238 (Ki). On the set-up: 0.2-0.5 nM human thrombin or human factor Xa; purchased Enzyme Research Laboratories, South Bend, Ind. Particulars: purified human thrombin, 0.10 M sodium phosphate buffer, pH 7.5, read-out: Ki values for inhibition of Serine Proteases: Trombin. The class given is biochemical. The method, boiled down: as §1

Assay [6] has as its target thrombin. Particulars: literature value; cited from earlier work.
[7] abbreviates: pH 7.5, read-out: Ki values for inhibition of Serine Proteases: Factor Xa.

Structures can show the parent of a compound that is named as a salt. Where two headings read alike, the source gives them in different places.

T2 sequence (P00742 235-488 limits assumed): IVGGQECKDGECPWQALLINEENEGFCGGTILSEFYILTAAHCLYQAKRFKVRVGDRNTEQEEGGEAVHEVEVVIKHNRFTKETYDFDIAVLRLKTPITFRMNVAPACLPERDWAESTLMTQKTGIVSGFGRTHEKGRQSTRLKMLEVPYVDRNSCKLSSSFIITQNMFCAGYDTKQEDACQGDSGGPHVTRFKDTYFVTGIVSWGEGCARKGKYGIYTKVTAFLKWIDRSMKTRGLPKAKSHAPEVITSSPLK
T2 sequence (P00742 41-179 partner limits assumed): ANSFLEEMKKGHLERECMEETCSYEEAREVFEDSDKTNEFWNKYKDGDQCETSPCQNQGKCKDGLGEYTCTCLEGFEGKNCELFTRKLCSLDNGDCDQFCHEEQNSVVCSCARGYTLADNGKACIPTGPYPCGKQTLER

With `N=C(N)NCCC[C@@H](C=O)NC(=O)[C@@H]1CCCN1C(=O)[C@H](N)Cc1ccccc1` [D-phenylalanyl-prolyl-arginal], the Ki in assay [1] is 75 nM.
`CC(C)(CN(CC(=O)NC(CCCCN)B(O)O)C(=O)CCc1ccccc1)c1ccccc1` (centres unmarked) [Example 53.1.1, Hydrocinnamoyl-[N-(2,2-dimethyl)-phenethyl-Gly]-boroLys--OH hydrochloride salt]: the Ki in assay [2] (pH 7.5, hydrochloride salt, read-out: Ki values for inhibition of Serine Proteases: Factor Xa) is under 500 nM; in assay [3], under 500 nM; in assay [5], under 500 nM. The IC50 in assay [4] is under 500 nM.
For `N#CC(CCCNC(=N)N)NC(=O)[C@@H]1CCCN1C(=O)[C@H](N)Cc1ccccc1` (stereo partly drawn) [D-phenylalanyl-prolyl-NHCH((CH2)3 NHC(=NH)NH2)--CN], the Ki in assay [6] was 700 nM.
“Hydrocinnamoyl-Sar-Lys[CH(OH)(OCH3)--C(=O)--OCH3] HCl [Example 61.4.1]”: the Ki in assay [2] (setting [7]) is under 50000 nM; in assay [3] it was under 50000 nM; in assay [5], under 500 nM. For the same compound, the IC50 in assay [4] was under 50000 nM.
Regarding “Methanesulfonyl-Gly-[N-(N-(Methyl)-Benzyl)-Gly]-boroLys--OH HCl [Example 66.3.2]”, the Ki in assay [2] (setting [7]), in assay [3] and in assay [5] was under 500 nM throughout. Also, the IC50 in assay [4] was under 500 nM.
Regarding `NCCCCC(NC(=O)CN(CCc1ccccc1C1CC1)C(=O)CCc1ccccc1)B(O)O` (centres unmarked) [Example 53.1.2, Hydrocinnamoyl-[N-(2-(Cyclopropyl)-Phenethyl)-Gly]-boroLys--OH HCl], the Ki in assay [2] (setting [7]), in assay [3] and in assay [5] was under 500 nM each time. In addition, in assay [4], the IC50 was under 500 nM.
For `Cc1cccc(CCN(CC(=O)NC(CCCCN)B(O)O)C(=O)CCc2ccccc2)c1` (centres unmarked) [Example 52.1.2, Hydrocinnamoyl-[N-(3-methylphenethyl)-Gly]-boroLys--OH hydrochloride salt], the Ki was under 500 nM in assay [2] (setting [7]), under 50000 nM in assay [3] and under 500 nM in assay [5]. Moreover, the IC50 in assay [4] was under 500 nM.
For `COC(=O)CCCC(=O)N(CCc1ccccc1)CC(=O)NC(CCCCN)B(O)O` (centres unmarked) [Example 68.4.1, Methyl Glutaryl-[N-(Phenethyl)-Gly]-boroLys--OH HCl], the values for the Ki in assay [2] (setting [7]), in assay [3] and in assay [5] were under 500 nM, under 50000 nM and under 500 nM, respectively. In assay [4], this compound returned an IC50 of under 50000 nM.
`CC1(C)C2CC3OB(C(CCCCN)NC(=O)CN(CCc4ccccc4)C(=O)CCCC(=O)O)OC3(C)C1C2` (centres unmarked) [Example 69.1.1, Glutaryl-[N-(Phenethyl)-Gly]-boroLys-C10H16]: the Ki in assay [2] (setting [7]) is under 500 nM; in assay [3], under 50000 nM; in assay [5], under 500 nM. Besides, the IC50 in assay [4] is under 50000 nM.
Take `CC1(C)C2CC3OB(C(CCCCN)NC(=O)CN(CCc4ccccc4C4CC4)C(=O)CCc4ccccc4)OC3(C)C1C2` (centres unmarked) [Example 54.1.2, Hydrocinnamoyl-[N-(2-(Cyclopropyl)-Phenethyl)-Gly]-boroLys-C10H16 HCl]: the Ki is under 50000 nM in assay [2] (setting [7]), under 500 nM in assay [3] and under 500 nM in assay [5]. Moreover, the IC50 in assay [4] was under 500 nM.
For `NCCCCC(NC(=O)CN(CCc1ccccc1)C(=O)CCCC(=O)O)B(O)O` (centres unmarked) [Example 66.1.1, Glutaryl-[N-(Phenethyl)-Gly]-boroLys--OH HCl], the results for the Ki in assay [2] (setting [7]), in assay [3] and in assay [5] were under 500 nM, under 50000 nM and under 500 nM, respectively. The IC50 in assay [4] is under 50000 nM.
